Patent US20180153870A1, “BIPERIDEN FOR TREATING CANCER” (Universitätsklinikum Hamburg-Eppendorf, priority 2015, published 2018)

Experiments:
Type in all cases: cell-based, human
BxPC3 = assay: cleaved caspase 3 sandwich ELISA (apoptosis), BxPC3; conditions: 29.6 μg/ml biperiden
Procedure: [The procedure below names another cell line; the source lists this cell line under the same test.] (§1) To determine the effect of biperiden, mepazine and combinations of the two active ingredients on apoptosis in cell lines, a “cleaved caspase 3” sandwich ELISA was used. The pancreatic cancer cell lines L3.6pl res, L3.6pl wt, Panc-1, Panc-2 and the reference cell line HPDE were treated with 29.6 μg/ml biperiden or 25 μM mepazine or 15 μM mepazine+3.7 μg/ml biperiden or only with vehicle (DMSO). The cleaved caspase 3 was measured 24, 48 and 72 hours after incubation. The apoptosis within the cells was measured using a PathScan “cleaved caspase 3” sandwich ELISA (Cell Signaling, #7190C) according to the manufacturers instructions. Each experiment was carried out at least 3 times in duplicate.

L3.6pl wt = assay: cleaved caspase 3 sandwich ELISA (apoptosis), L3.6pl wt; conditions: 29.6 μg/ml biperiden
Procedure: as §1

Panc-1 = assay: cleaved caspase 3 sandwich ELISA (apoptosis), Panc-1; conditions: 29.6 μg/ml biperiden, after 24 hours
Procedure: as §1

[1] = tested on: tested cell lines (L3.6pl res, L3.6pl wt, Panc-1, Panc-2, BxPC3, HPDE); assay: cleaved caspase 3 sandwich ELISA (apoptosis), all tested cell lines; conditions: 29.6 μg/ml biperiden
Procedure: To determine the effect of biperiden, mepazine and combinations of the two active ingredients on apoptosis in cell lines, a “cleaved caspase 3” sandwich ELISA was used. […] The cleaved caspase 3 was measured 24, 48 and 72 hours after incubation. The apoptosis within the cells was measured using a PathScan “cleaved caspase 3” sandwich ELISA (Cell Signaling, #7190C) according to the manufacturers instructions. Each experiment was carried out at least 3 times in duplicate.

L3.6pl res = assay: cleaved caspase 3 sandwich ELISA (apoptosis), L3.6pl res; conditions: 29.6 μg/ml biperiden
Procedure: as §1

Panc-2 = assay: cleaved caspase 3 sandwich ELISA (apoptosis), Panc-2; conditions: 29.6 μg/ml biperiden
Procedure: as §1

HPDE = assay: cleaved caspase 3 sandwich ELISA (apoptosis), HPDE; conditions: 29.6 μg/ml biperiden
Procedure: as §1

OC(CCN1CCCCC1)(c1ccccc1)C1CC2C=CC1C2 (stereo not drawn) [biperiden]
cleaved caspase 3 (BxPC3; after 24 hours): 813.1±37.7 RLU
increase of apoptosis rate compared to vehicle (BxPC3; after 24 hours, p=0.002): 369.8%
cleaved caspase 3 (BxPC3; after 48 hours): 1046.1 ± 34.7 RLU
increase of apoptosis rate compared to vehicle (BxPC3; after 48 hours, p=0.004): 357.5%
cleaved caspase 3 (BxPC3; after 72 hours): 862.8 ± 85.2 RLU
increase of apoptosis rate compared to vehicle (BxPC3; after 72 hours, p=0.032): 230.9%
cleaved caspase 3 (L3.6pl wt; after 24 hours): 443.4±18.1 RLU
increase of apoptosis rate compared to vehicle (L3.6pl wt; after 24 hours, p<0.001): 210.4%
cleaved caspase 3 (L3.6pl wt; after 48 hours): 386.2±15.9 RLU
increase of apoptosis rate compared to vehicle (L3.6pl wt; after 48 hours, p=0.028): 83.5%
cleaved caspase 3 (Panc-1): 325.1±48.3 RLU
increase of apoptosis rate compared to vehicle (Panc-1; p=0.049): 125.3%
apoptosis [1]: increased apoptosis was observed in all cell lines
cleaved caspase 3 (L3.6pl res; after 24 hours): 770.0±72.5 RLU
increase of apoptosis rate compared to vehicle (L3.6pl res; after 24 hours, p=0.008): 274%
cleaved caspase 3 (L3.6pl res; after 48 hours): 848.1±45.7 RLU
increase of apoptosis rate compared to vehicle (L3.6pl res; after 48 hours, p=0.003): 273.8%
cleaved caspase 3 (L3.6pl res; after 72 hours): 633.3±55.7 RLU
increase of apoptosis rate compared to vehicle (L3.6pl res; after 72 hours, p=0.021): 204.0%
cleaved caspase 3 (Panc-2; after 24 hours): 360.0±11.0 RLU
increase of apoptosis rate compared to vehicle (Panc-2; after 24 hours, p=0.029): 109.1%
cleaved caspase 3 (Panc-2; after 48 hours): 306.0±74.8 RLU
increase of apoptosis rate compared to vehicle (Panc-2; after 48 hours, p=0.047): 65.3%
cleaved caspase 3 (HPDE; after 48 hours): 265.3±27.8 RLU
increase of apoptosis rate compared to vehicle (HPDE; after 48 hours, p=0.037): 132%
cleaved caspase 3 (HPDE; after 72 hours): 368.4±33.5 RLU
increase of apoptosis rate compared to vehicle (HPDE; after 72 hours, p=0.002): 283.9%
